Measurements from patent US8039420B2, “Fungicidal composition containing acid amide derivative” (Ishihara Sangyo Kaisha, Ltd., priority 2004, dated 2011).

Tested on: Sphaerotheca fuliginea
Assay: Test on Preventive Effect Against Cucumber Powdery Mildew
Settings: 200 ppm, spray on cucumber (Sagamihanpaku) 1.5-leaf stage; area of sporulation 6 to 7 days after inoculation
Procedure: In each test, the controlling index was determined on the basis of the following standards:
Cucumber (cultivar: Sagamihanpaku) was cultivated in a plastic pot having a diameter of 7.5 cm, and when it reached 1.5-leaf stage, 10 ml of a chemical solution having the acid amide derivative of the formula (I) or a salt thereof adjusted to a prescribed concentration, was applied by a spray gun. After the chemical solution dried (the same day as the application or the next day), a suspension of conidia of Sphaerotheca fuliginea was sprayed and inoculated and maintained in a constant temperature chamber at 20° C. From 6 to 7 days after the inoculation, the area of sporulation was investigated, and the controlling index was determined in accordance with the above evaluation standards.

Cc1nn(C)c(Cl)c1C(=O)NC(C)(C)C(=O)c1ccccc1 [1-34]
controlling index: 4 (Area of lesions, length of lesions, number of lesions or area of sporulation is less than 10% of non-treated plot)
